Experimental data from US9708359B2, “Pyrrolopyrimidine nucleosides and analogs thereof” (Chimerix, Inc., priority 2015, dated 2017).
Where “and” joins values, the source holds several entries; their conditions need not be identical. Equal entries are not always repeated.

How the values were obtained:
RAW cells = assay: Conversion of Compound 1 to Triphosphate in RAW Cells; details: for (Compound 1-TP)/(Compound 1) (ng): ratio by ng; for (Compound 1-TP)/(Compound 1) (pmol): ratio by pmol
mouse norovirus = assay: Mouse Norovirus (MNV) assay in RAW cells; details: murine norovirus
[1] = RAW cells incubated with 0.5 μM Compound 1 for 48 hours
[2] = RAW cells incubated with 1 μM Compound 1 for 48 hours
[3] = RAW cells incubated with 5 μM Compound 1 for 48 hours
[4] = RAW cells incubated with 10 μM Compound 1 for 48 hours
[5] = Table 8, N/A = assayed but no EC50 value could be measured

| EC50 (mouse norovirus; [5]) | Compound | further results |
| --- | --- | --- |
|  | Cc1nc(N)c2c(C(N)=O)cn([C@@H]3O[C@H](COP(=O)(O)OP(=O)(O)OP(=O)(O)O)[C@@H](O)[C@H]3O)c2n1 [Compound 1-TP] | Concentration (ng/1 × 10^6 cells) (RAW cells; [1]): 3.74 ng/1 × 10^6 cells; Concentration (pmol/1 × 10^6 cells) (RAW cells; [1]): 6.37 pmol/1 × 10^6 cells; Concentration (ng/1 × 10^6 cells) (RAW cells; [2]): 5.13 ng/1 × 10^6 cells; Concentration (pmol/1 × 10^6 cells) (RAW cells; [2]): 8.74 pmol/1 × 10^6 cells; Concentration (ng/1 × 10^6 cells) (RAW cells; [3]): 26.77 ng/1 × 10^6 cells; Concentration (pmol/1 × 10^6 cells) (RAW cells; [3]): 45.61 pmol/1 × 10^6 cells; Concentration (ng/1 × 10^6 cells) (RAW cells; [4]): 41.78 ng/1 × 10^6 cells; Concentration (pmol/1 × 10^6 cells) (RAW cells; [4]): 71.18 pmol/1 × 10^6 cells; (Compound 1-TP)/(Compound 1) (ng) (RAW cells; 0.5 μM Compound 1, 48 hours): 21.8; (Compound 1-TP)/(Compound 1) (ng) (RAW cells; 1 μM Compound 1, 48 hours): 39.4; (Compound 1-TP)/(Compound 1) (ng) (RAW cells; 5 μM Compound 1, 48 hours): 41.3; (Compound 1-TP)/(Compound 1) (ng) (RAW cells; 10 μM Compound 1, 48 hours): 41.1; (Compound 1-TP)/(Compound 1) (pmol) (RAW cells; 0.5 μM Compound 1, 48 hours): 12.0; (Compound 1-TP)/(Compound 1) (pmol) (RAW cells; 1 μM Compound 1, 48 hours): 21.7; (Compound 1-TP)/(Compound 1) (pmol) (RAW cells; 5 μM Compound 1, 48 hours): 22.7; (Compound 1-TP)/(Compound 1) (pmol) (RAW cells; 10 μM Compound 1, 48 hours): 22.6 |
| > 100 µM | Cc1nc(N)c2c(C(=N)NO)cn([C@@H]3O[C@H](CO)[C@@H](O)[C@H]3O)c2n1 [Compound 85] |  |
| > 100 µM | COC(=O)C(OC[C@H]1O[C@@H](n2cc(C#N)c3c(N)nc(C)nc32)[C@H](O)[C@@H]1O)P(=O)(OC)OC (stereo partly shown) [Compound 86] |  |
| > 100 µM | Cc1nc(N)c2c(C(=N)N)cn([C@@H]3O[C@H](CO)[C@@H](O)[C@H]3O)c2n1 [Compound 91] |  |
| > 100 µM | Cc1nc(N)c2c(C(N)=O)cn([C@@H]3O[C@H](COC(=O)[C@@H](N)C(C)C)[C@@H](OC(=O)C(N)C(C)C)[C@@]3(C)O)c2n1 (stereo partly shown) [Compound 93] |  |
| > 100 µM | Cc1nc(Cl)c2ccn(C[C@H](O)CO)c2n1 [Compound 98] |  |
| > 100 µM | COC(=N)c1cn([C@@H]2O[C@@](CO)(N=[N+]=[N-])[C@@H](O)[C@H]2O)c2nc(C)nc(N)c12 [Compound 100] |  |
| > 100 µM | COC(=N)c1cn([C@@H]2O[C@H](COS(=O)(=O)CCCCl)[C@H]3OC(C)(C)O[C@H]32)c2nc(C)nc(N)c12 [Compound 103] |  |
| > 100 µM | COC(=N)c1cn([C@@H]2O[C@H](CN=[N+]=[N-])[C@@H](O)[C@H]2O)c2nc(C)nc(N)c12 [Compound 104] |  |
| > 100 µM | Cc1nc(N)c2c(C(N)=O)cn([C@@H]3O[C@@](CO)(N=[N+]=[N-])[C@@H](O)[C@H]3O)c2n1 [Compound 105] |  |
| > 100 µM | Cc1nc(N)c2c(C#N)cn([C@@H]3O[C@@](CO)(N=[N+]=[N-])[C@@H](O)[C@H]3O)c2n1 [Compound 106] |  |
|  | Cc1nc(N)c2c(C(N)=O)cn([C@@H]3O[C@H](COP(=O)(N[C@@H](C)C(=O)OCc4ccccc4)Oc4ccccc4)[C@@H](O)[C@H]3O)c2n1 (stereo partly shown) [Compound 107] | EC50 (mouse norovirus; Table 7): 18.1 µM |
| > 100 µM | Cc1nc(N)c2c(C(N)=O)cn([C@@H]3O[C@H](CN)[C@@H](O)[C@H]3O)c2n1 [Compound 108] |  |
|  | COC(=O)[C@H](C)NP(=O)(OC[C@H]1O[C@@H](n2cc(C(N)=O)c3c(N)nc(C)nc32)[C@H](O)[C@@H]1O)Oc1ccccc1 (stereo partly shown) [Compound 111] | EC50 (mouse norovirus; Table 7): 21 µM |
| > 100 µM | Cc1nc(N)c2c(C(N)=O)cn([C@@H]3O[C@H](CO)[C@@H](N=[N+]=[N-])[C@H]3O)c2n1 [Compound 112] |  |
| > 100 µM | Cc1nc(N)c2c(C(N)=O)cn([C@@H]3O[C@H](CO)[C@@H](N)[C@H]3O)c2n1 [Compound 113] |  |
| > 100 µM | Cc1nc(N)c2c(C#N)cn([C@H]3C=C[C@@H](O)O3)c2n1 [Compound 114] |  |
| > 100 µM | CCOP(=O)(CO[C@@H]1C=C[C@H](n2cc(C#N)c3c(Cl)nc(C)nc32)O1)OCC [Compound 116] |  |

| EC50 (mouse norovirus; [5]) | Compound | further results |
| --- | --- | --- |
| > 100 µM | Cc1nc(Cl)c2c(C#N)cn([C@@H]3O[C@H](O)[C@@H](O)[C@H]3O)c2n1 [Compound 117] |  |
| > 100 µM | CCOP(=O)(CC[C@H]1O[C@@H](n2cc(C(N)=O)c3c(N)nc(C)nc32)[C@H](O)[C@@H]1O)OCC [Compound 119] |  |
| > 100 µM | Cc1nc(Cl)c2ccn([C@H]3CC=CO3)c2n1 [Compound 120] |  |
| > 100 µM | CCOP(=O)(CCO[C@H]1O[C@@H](n2cc(C#N)c3c(Cl)nc(C)nc32)[C@H](O)[C@@H]1O)OCC [Compound 123] |  |
| > 100 µM | Cc1nc(N)c2c(C(N)=O)cn([C@@H]3O[C@H](OCCP(=O)(O)O)[C@@H](O)[C@H]3O)c2n1 [Compound 125] |  |
|  | Cc1nc(N)c2c(C(N)=O)cn([C@@H]3O[C@H](COP(=O)(N[C@@H](C)C(=O)OCc4ccccc4)N[C@H](C)C(=O)OCc4ccccc4)[C@@H](O)[C@H]3O)c2n1 [Compound 126] | EC50 (mouse norovirus; Table 7): 33.6 µM and 38.9 µM |
| > 100 µM | CC(=O)Nc1nc(C)nc2c1c(C(N)=O)cn2[C@@H]1O[C@H](COC(C)=O)[C@@H](OC(C)=O)[C@H]1OC(C)=O [Compound 128] |  |
| > 100 µM | CCCC(CCC)C(=O)Nc1nc(C)nc2c1c(C(N)=O)cn2[C@@H]1O[C@H](CO)[C@@H](O)[C@H]1O [Compound 131] |  |
| > 100 µM | Cc1nc(N)c2c(C(N)=O)cn([C@@H]3O[C@H](COP(=O)(N[C@@H](C)C(=O)OC(C)C)Oc4ccccc4)[C@@H](O)[C@H]3O)c2n1 (stereo partly shown) [Compound 132] |  |
|  | Cc1nc(N)c2c(C(N)=O)cn([C@@H]3O[C@H](COP(=O)(N[C@@H](C)C(=O)OC(C)C)Oc4ccccc4)[C@@H](OC(=O)C(C)C)[C@H]3OC(=O)C(C)C)c2n1 (stereo partly shown) [Compound 133] | EC50 (mouse norovirus; Table 7): 25.7 µM |
|  | Cc1nc(N)c2c(C(N)=O)cn([C@@H]3O[C@H](COP(=O)(N[C@@H](C)C(=O)OC(C)C)OCc4ccccc4C)[C@@H](O)[C@H]3O)c2n1 (stereo partly shown) [Compound 137] | EC50 (mouse norovirus; Table 7): 20 µM |
|  | CCCCCCCCCCCCCCCCOCCCOC(=O)[C@H](C)NP(=O)(OC[C@H]1O[C@@H](n2cc(C(N)=O)c3c(N)nc(C)nc32)[C@H](O)[C@@H]1O)Oc1ccccc1 (stereo partly shown) [Compound 139] | EC50 (mouse norovirus; Table 7): 2.3 µM |
| > 100 µM | CCCCCCCCCCCCCCCCOCCCOP(=O)(N[C@@H](C)C(=O)OC(C)C)OC[C@H]1O[C@@H](n2cc(C(N)=O)c3c(N)nc(C)nc32)[C@H](O)[C@@H]1O (stereo partly shown) [Compound 140] |  |
|  | Cc1nc(N)c2c(C(N)=O)cn([C@@H]3O[C@H](COP(=O)(O)N[C@@H](C)C(=O)OC(C)C)[C@@H](O)[C@H]3O)c2n1 [Compound 141] | EC50 (mouse norovirus; Table 7): 3.2 µM |
| > 100 µM | CCCCCCCCCCCCCCCOCCCOC(=O)C(C)NP(=O)(OCc1ccccc1C)OC[C@H]1O[C@@H](n2cc(C(N)=O)c3c(N)nc(C)nc32)[C@H](O)[C@@H]1O (stereo partly shown) [Compound 142] |  |
|  | CCCCCCCCCCCCCCCCOCCCOC(=O)[C@H](C)NP(=O)(O)OC[C@H]1O[C@@H](n2cc(C(N)=O)c3c(N)nc(C)nc32)[C@H](O)[C@@H]1O [Compound 143] | EC50 (mouse norovirus; Table 7): 26.3 µM |
|  | CCCCCCCCC(=O)Oc1ccc(COP(=O)(OCc2ccc(OC(=O)CCCCCCCC)cc2)OP(=O)(O)OC[C@H]2O[C@@H](n3cc(C(N)=O)c4c(N)nc(C)nc43)[C@H](O)[C@@H]2O)cc1 [Compound 145] | EC50 (mouse norovirus; Table 7): 7.4 µM |

| Compound | EC50 (mouse norovirus; [5]) | further results |
| --- | --- | --- |
| Cc1nc(N)c2c(C(N)=O)cn([C@@H]3O[C@H](CO)[C@@H](O)[C@@]3(C)O)c2n1 [Compound 87] | > 100 µM |  |
| N#Cc1nc(N)c2c(C(N)=O)cn([C@@H]3O[C@H](CO)[C@@H](O)[C@H]3O)c2n1 [Compound 89] | > 100 µM |  |
| CC#Cc1nc(N)c2c(C(N)=O)cn([C@@H]3O[C@H](CO)[C@@H](O)[C@H]3O)c2n1 [Compound 90] | > 100 µM |  |
| Cc1nc(N)c2c(C(N)=O)cn([C@H]3C[C@H](O)[C@@H](CO)O3)c2n1 [Compound 92] | > 100 µM |  |
| Cc1nc(NO)c2c(C(N)=O)cn([C@@H]3O[C@H](CO)[C@@H](O)[C@H]3O)c2n1 [Compound 94] | > 100 µM |  |
| Cc1nc(NN)c2c(C(N)=O)cn([C@@H]3O[C@H](CO)[C@@H](O)[C@H]3O)c2n1 [Compound 95] | > 100 µM |  |
| Cc1nc(N)c2c(C(N)=O)cn([C@@H]3O[C@H](C)[C@@H](O)[C@H]3O)c2n1 [Compound 97] | > 100 µM |  |
| NC(=O)c1cn([C@@H]2O[C@H](CO)[C@@H](O)[C@H]2O)c2nc(CO)nc(N)c12 [Compound 99] | > 100 µM |  |
| Cc1nc(N)c2c(C(N)=O)cn([C@@H]3O[C@H](CO)[C@@H](F)[C@H]3O)c2n1 [Compound 101] | > 100 µM |  |
| Cc1nc(N)c2c(C(N)=O)cn([C@@H]3O[C@H](C(C)O)[C@@H](O)[C@H]3O)c2n1 (stereo partly shown) [Compound 102] | > 100 µM |  |
| Cc1nc(N)c2c(C(N)=O)cn([C@@H]3O[C@@H](CO)[C@@H](O)[C@H]3O)c2n1 [Compound 109] | > 100 µM |  |
| Cc1nc(N)c2c(C(N)=O)cn([C@H]3CCCO3)c2n1 [Compound 110] | > 100 µM |  |
| Cc1nc(N)c2c(C(N)=O)cn([C@@H]3O[C@H](O)[C@@H](O)[C@H]3O)c2n1 [Compound 118] | > 100 µM |  |
| Cc1nc(N)c2c(C(N)=O)cn([C@H]3C=C[C@@H](O)O3)c2n1 [Compound 124] | > 100 µM |  |
| Cc1nc(/N=C/N(C)C)c2c(C(N)=O)cn([C@@H]3O[C@H](CO)[C@@H](O)[C@H]3O)c2n1 [Compound 127] | 5.5 µM |  |
| CC(=O)OC[C@H]1O[C@@H](n2cc(C(N)=O)c3c(N)nc(C)nc32)[C@H](OC(C)=O)[C@@H]1OC(C)=O [Compound 129] | 88.7 µM |  |
| CCCCCCCCCCCCCCCCOCCCC(=O)Nc1nc(C)nc2c1c(C(N)=O)cn2[C@@H]1O[C@H](CO)[C@@H](O)[C@H]1O [Compound 130] | 42.7 µM |  |
| Cc1nc(N)c2c(C(N)=O)cn([C@@H]3O[C@H](COP(=O)(N[C@@H](C)C(=O)OC(C)C)Oc4ccccc4)[C@H]4OC(=O)O[C@H]43)c2n1 (stereo partly shown) [Compound 134] | 68.4 µM |  |
| Cc1nc(N)c2c(C(N)=O)cn([C@@H]3O[C@H](COP(=O)(NCc4ccccc4)NCc4ccccc4)[C@@H](O)[C@H]3O)c2n1 [Compound 136] | 64.5 µM |  |
| C=Cc1c(C(N)=O)c2c(N)nc(C)nc2n1[C@@H]1O[C@H](CO)[C@@H](O)[C@H]1O [Compound 144] | > 100 µM |  |
